Assay results taken from patent US4645756A, “[α,ω-bis(diphenylphosphino)hydrocarbon]bis[(thiosugar)gold] and bis[(selenosugar)gold] derivatives, pharmaceutical compositions and method of use” (priority 1985, dated 1987).
Where “and” joins values, the source holds several entries; their conditions need not be identical. Equal values may be shown once.

How the values were obtained:
[1] = tested on: P388 lymphocytic leukemia; experiment: in vivo ip P388 leukemia mouse model; conditions: for ILS relative to cisplatin / activity in the P388 leukemia assay: ip P388, in words; for ILS (Max), maximum increase in lifespan: mice bearing ip P388 leukemia, ip days 1-5, slash-separated figures are separate experiments
From the text: P388 lymphocytic leukemia is currently the most widely used animal tumor model for screening for antitumor agents and for detailed evaluation of active compounds. This tumor system is widely accepted as an antitumor agent screening tool because it is sensitive to virtually all of the clinically active antineoplastic agents; quantitative and reproducible; amenable for large-scale screening; and predictive for activity in other animal tumor models.
10^6 P388 leukemia cells are inoculated ip in B6D2F1 mice. Twenty-four hours later, if the tumor inoculum proves to be free of bacterial contamination (as determined by 24 hours incubation in thioglycollate broth), animals are randomized into groups of 6 and housed in shoebox cages. […] An equal volume of saline is added; if the drug comes out of solution an equal volume of polyethoxylated castor oil is added and then saline qs to a concentration such that the desired dose is delivered in 0.5 ml. The final concentration of DMA, ethanol and polyethoxylated castor oil is 10 percent. Dilutions for lower doses are made with saline so there is a decreasing proportion of organic solvents in the vehicle with decreasing dosage. These vehicles provide soluble formulations (or suspensions). Formulations are prepared immediately prior to injection. The compound is administered ip on Days 1 through 5 (i.e. treatment is initiated 24 hrs after tumor inoculation). Each experiment includes three groups of 6 animals as untreated controls and animals treated with a positive control, cisplatin, at two dose levels. Animals are weighed as a group on Days 1, 5 and 9 and average weight change (Δwt.) is used as a reflection of toxicity. Each experiment also includes an inoculum titration--groups of 8 mice inoculated ip with 10^5 to 10° P388 leukemia cells. The titration is used to calculate cell kill achieved by treatment with drugs. Animals are monitored daily for mortality and experiments are terminated after 45 days. The endpoint is median survival time (MST) and increase in lifespan (ILS) which is the percentage of increase in MST relative to untreated controls. Untreated controls inoculated ip with 10^6 P388 leukemia cells generally survive for a median of 10 or 11 days. A drug is considered active if it produces ≥25 percent ILS.

[2] = tested on: M5076 reticulum cell sarcoma; experiment: ip implanted M5076 reticulum cell sarcoma in mice; assay type: in vivo, mouse; conditions: mice bearing ip M5076; ip qD × 10; slash-separated figures are separate experiments
Description: Another chemosensitive tumor model is intraperitoneally (ip) implanted M5076 reticulum cell sarcoma in mice. In this system B6D2F female mice are inoculated with 0.5 ml of a 10 percent (w:v) brei of M5076 prepared from pooled subcutaneous (sc) tumors excised at about 21 days from C57B1/6 donors. Drugs are administered ip. Daily treatement is begun 24 hours after implantation and is continued for ten days. The treatment regimen for M5076 is more prolonged than for P388 because of the slower growth rate and longer control survival time of the M5076 tumor. The antitumor activity of Compounds No. 1 and No. 2 of Table A in the M5076 reticulum cell sarcoma tumor model is set forth in Table 2.

[3] = Dumas et al., JP 58,192,893; cited from earlier work
[4] = Struck et al. 1966; cited from earlier work
[5] = tested on: mammary adenocarcinoma 16/c; experiment: mammary adenocarcinoma 16/c implanted sc in C3H mice; assay type: in vivo, mouse; conditions: ip, q4D × 5
Description: Compound No. 1 from Table A was also tested in a further in vivo tumor model, mammary adenocarcinoma 16/c, a tumor model sensitive to DNA binders and alkylating agents. In this experiment, the tumor was implanted sc in C3H mice, and the drug was administered ip or iv on an intermittant treatment schedule, i.e., once on days 1, 5, 9, 13 and 17. Tumors were measured 3 weeks after implantation, and activity was assessed by degree of tumor growth inhibition.

[6] = tested on: mammary adenocarcinoma 16/c; conditions: general statement on the positive control; cited from earlier work
[7] = tested on: ADJ-PC6 Plasmacytoma; experiment: ADJ-PC6 Plasmacytoma implanted sc in BALB/c female mice; assay type: in vivo, mouse
Description: Likewise, Compound No. 1 from Table A was tested in an additional in vivo tumor model known as ADJ-PC6 Plasmacytoma. In this assay, tumor cells are carried by serial sc passage in BALB/c female mice and then collected aseptically on ca. day 21 and minced in Hank's balanced salt solution. The cells are then dispersed by homogenization in a loose-fitting teflon glass homogenizer, and cell concentration is adjusted to 4×10^6 viable ([…]) cells per ml by hemocytometer counts. A total of 0.5 ml (2×10^6 cells) is implanted sc on the right flank of BALB/c female mice in groups of 8. Treatment is given ip on Days 1-10, and tumors are measured in perpendicular diameters with a vernier caliper on Day 18. Tumor volume is calculated by multiplying length×width^2×0.5. Generally, ≥75% inhibition of tumor growth reflects significant antitumor effect.

[8] = tested on: P388 leukemia; conditions: cited from earlier work
[9] = tested on: HT-29 human colon carcinoma cells; experiment: HT-29 human colon carcinoma cell kill in vitro, 2 hour exposure; assay type: cell-based; conditions: +FCS
Description: Additionally, in another in vitro assay, Compound No. 1 effectively killed HT-29 human colon carcinoma cells, with an IC50 (+FCS) of 5 μM following a 2 hour exposure.

[10] = tested on: B16 melanoma; experiment: in vivo ip B16 melanoma in mice; parameters: species or system mouse
Description: In this system, groups of eight B6D2F1 mice are inoculated ip with 0.5 ml of a 10% (w:v) brei of B16 melanoma prepared from pooled sc tumors excised at 14-21 days from […] donor mice. Daily treatment is begun 24 hours after tumor implantation and is continued daily for ten (10) days. The route of drug administration is ip. The mice are monitored daily for survival for sixty (60) days. Antitumor activity is assessed by prolongation of median survival time. An ILS of ≥25% indicates activity in this tumor model.
Similarly, in another additional in vivo tumor model, namely B16 melanoma in mice, Compound No. 1 from Table A, administered ip in a dosage schedule of 8, 4, 2, 1 and 0.5 mg/kg produced an average increase in lifespan (ILS) of 32% at a maximally tolerated dose (MTD) of 3.4 μM/kg.

[11] = tested on: B16 melanoma cells; experiment: B16 mouse melanoma cell clonogenic cytotoxicity assay in vitro, two hour exposure; assay type: cell-based; conditions: B16 cloning efficiency; 2 hour exposure; 10% fetal calf serum
Description: The B16 mouse melanoma cell assay measures the ability of a compound to inhibit the clonogenic capacity of cells in vitro following a two hour exposure to the compound.
B16 melanoma (highly metastatic subline, F10) are used and maintained as monolayer cultures in Minimal Essential Media (Grand Island Biological Co., Grand Island, N.Y.) supplemented with 10% calf serum, 1% antibiotics in a 5% CO2 humidified incubator at 37° C. Asynchronous populations of cells are harvested and replated to 5000 cells/plate in sterile 60 mm×15 mm petri plates. Plates are incubated overnight to allow attachment of the cells to the plate. Cells are treated with the compound to be evaluated under sterile conditions, allowed to react for 2 hours followed by aspiration of medium. Plates are washed one time with 5 ml of phosphate buffered saline (PBS), followed by the addition of 5 ml of fresh media. […] Viability is measured by the ability of a cell to form a colony of greater than 50 cells. […] Plates are dried and counted with a Biotran III Automatic Count Totalized (New Brunswick Scientific Co., Edison, N.J.). Mean and standard deviation of triplicate samples are determined for each drug concentration. The data are analyzed by plotting the log of the survival fraction (number of colonies in drug treated plates/number of colonies in controls) versus the drug concentration. […]

μ-8 1,2-Bis(Diphenylphosphino)Ethane]Bis[(2,3,4,6-Tetra-O-Acetyl-1-Thio-α-D-Mannopyranosato-S)Gold(I)] [compound 3]
ILS relative to cisplatin [1]: comparable to the clinically useful antitumor agent cisplatin | activity in the P388 leukemia assay [1]: particularly good activity | ILS (Max), maximum increase in lifespan [1]: 30% and 25%

μ-[1,2-Bis(diphenylphosphino)ethane]-bis[1-seleno-β-D-glucopyranosato-se)gold(I)] [compound 7]
ILS (Max), maximum increase in lifespan [1]: 36% and 27% | ILS (MAX), maximum increase in lifespan [2]: 46%

CC[PH](CC)(CC)[Au][Se]C1OC(COC(C)=O)C(OC(C)=O)C(OC(C)=O)C1OC(C)=O (centres unmarked) [selenium analog of auranofin]
antiarthritic utility [3]: antiarthritic agents

μ-[1,2-Bis(diphenylphosphino)ethane]bis[2,3,4,6-tetra-O-acetyl-1-thio-β-D-glucopyranosato-S)gold(I)] [compound 2]
ILS relative to cisplatin [1]: comparable to the clinically useful antitumor agent cisplatin | activity in the P388 leukemia assay [1]: particularly good activity | ILS (Max), maximum increase in lifespan [1]: 95% | ILS (MAX), maximum increase in lifespan [2]: 67%

μ-1,2-Bis(Diphenylphosphino)Ethane]Bis[(1-Thio-β-D-Galactopyranosato-S)Gold(I)] [compound 4]
ILS (Max), maximum increase in lifespan [1]: 85% and 100% and 147% | ILS (MAX), maximum increase in lifespan [2]: 37%

μ-[1,3-Bis(diphenylphosphino)propane]bis[1-thio-β-D-glucopyranosato-S)gold(I)] [compound 6]
ILS (Max), maximum increase in lifespan [1]: 28% and 56% and 41% | ILS (MAX), maximum increase in lifespan [2]: 35%

c1ccc(P(CCP(c2ccccc2)c2ccccc2)c2ccccc2)cc1 [ethylenebis(diphenylphosphine)]
cytotoxic activity [4]: cytotoxic activity

N.N.[Cl][Pt][Cl] [Cisplatin, cisplatin]
Inhibition ([5]; Experiment 1, 6 mg/kg): 97% | Mean Tumor Volume on Day 21 ([5]; Experiment 1, 6 mg/kg): 30 ± 64 mm^3 | N.P., proportion of mice without palpable tumors on Day 21 ([5]; Experiment 1, 6 mg/kg): 6/8 | Inhibition ([5]; Experiment 2, 6 mg/kg): 100% and 98% | N.P., proportion of mice without palpable tumors on Day 21 ([5]; Experiment 2, 6 mg/kg): 8/8 and 7/8 | Inhibition ([5]; Experiment 2, 8 mg/kg): 36% | Mean Tumor Volume on Day 21 ([5]; Experiment 2, 8 mg/kg): 711 ± 268 mm^3 | N.P., proportion of mice without palpable tumors on Day 21 ([5]; Experiment 2, 8 mg/kg): 0/7 | inhibition of the growth of mammary adenocarcinoma 16/c [6]: complete inhibition | tumor growth inhibition ([7]; positive control, in words): complete tumor growth inhibition

CC(=O)OC[C@H]1O[C@@H]([S-])[C@H](OC(C)=O)[C@@H](OC(C)=O)[C@@H]1OC(C)=O.CCP(CC)CC.[Au+] [auranofin]
activity in an intraperitoneal P388 leukemia tumor model ([8]; Mirabelli et al. 1984): respectable activity | antitumor effects in animals bearing P388 leukemia ([8]; Simon et al. 1981, Mirabelli et al. 1985): significant antitumor effects

μ-[1,2-Bis(diphenylphosphino)ethane]bis[1,thio-α-D-mannopyranosato-S)gold(I)] [compound 5]
ILS (Max), maximum increase in lifespan [1]: 90% and 74%

OCC1OC([S][Au])C(O)C(O)C1O.OCC1OC([S][Au])C(O)C(O)C1O.c1ccc(P(CCP(c2ccccc2)c2ccccc2)c2ccccc2)cc1 [Compound No. 1]
IC50 [9]: 5 µM | Inhibition ([5]; Experiment 1, 12 mg/kg): 96% | Mean Tumor Volume on Day 21 ([5]; Experiment 1, 12 mg/kg): 42 ± 60 mm^3 | N.P., proportion of mice without palpable tumors on Day 21 ([5]; Experiment 1, 12 mg/kg): 3/5 | ILS relative to cisplatin [1]: comparable to the clinically useful antitumor agent cisplatin | activity in the P388 leukemia assay [1]: particularly good activity | ILS (Max), maximum increase in lifespan [1]: 86 ± 8% | ILS (MAX), maximum increase in lifespan [2]: 45% and 65% | average increase in lifespan (ILS) ([10]; B16 melanoma in mice, ip 8, 4, 2, 1 and 0.5 mg/kg, at MTD of 3.4 μM/kg): 32% | ILS, maximum increase in lifespan ([10]; mice bearing ip B16 melanoma, ip qD × 10, slash-separated figures are separate experiments): 37% and 26% | % Inhibition of tumor growth (Day 18) ([7]; 3 mg/kg/day × 10, ip): 50% | MTV, mean tumor volume on Day 18 ([7]; 3 mg/kg/day × 10, ip): 295 ± 163 mm^3 | N.P., proportion of mice without palpable tumor on Day 18 ([7]; 3 mg/kg/day × 10, ip): 0/8 | % Inhibition of tumor growth (Day 18) ([7]; 6 mg/kg/day × 10, ip): 98% | MTV, mean tumor volume on Day 18 ([7]; 6 mg/kg/day × 10, ip): 11 ± 28 mm^3 | N.P., proportion of mice without palpable tumor on Day 18 ([7]; 6 mg/kg/day × 10, ip): 6/7 | inhibition of ADJPC6 Plasmacytoma ([7]; another experiment, same dose (6 mg/kg/day × 10, ip) and schedule): 23% | IC50 [11]: 1000 ± 200 nM

μ-[1,2-Bis(Diphenylphosphino)Ethane]-bis [compound 8, μ-[1,2-Bis(Diphenylphosphino)Ethane]-bis [1-Thio-D-Ribofuranosato-S)Gold(I)]]
ILS (Max), maximum increase in lifespan [1]: 50% and 56%
